Measured values published in patent US20090170067A1, “Simian tropic, recombinant human immunodeficiency-1 viruses” (The Rockefeller University, priority 2006, published 2009).

Tests used:
HIV-1NL4-3 [1] = assay: Sensitivity to RT inhibitors, TZM luciferase infection assay; assay type: cell-based; details: TZM-bl indicator cells, FIG. 5A,B
SIVMAC239 [2] = assay: as above; assay type: cell-based, simian immunodeficiency virus; details: TZM-bl indicator cells, FIG. 5A,B
stHIV/KB9 [3] = assay: as above; assay type: cell-based, simian-tropic HIV-1; details: TZM-bl indicator cells, FIG. 5A,B
HIV-1NL4-3 [4] = assay: Protease inhibitor virus inhibition assay (infected HUT-R5 cells, readout on TZM-bl); assay type: cell-based; details: infected HuT-CCR5 cells, FIG. 5C
SIVMAC239 [5] = assay: as above; assay type: cell-based, simian immunodeficiency virus; details: infected HuT-CCR5 cells, FIG. 5C
stHIV/KB9 [6] = assay: as above; assay type: cell-based, simian-tropic HIV-1; details: infected HuT-CCR5 cells, FIG. 5C
[7] = biological target: rhesus macaque APOBEC3G (rhesus macaque); assay: cell-based or functional assay
[8] = biological target: HIV-1 capsid (CA) protein of the HIV-1NL4-3-based viruses (HIV/KB9/GFP, HIV(SVif)/KB9/GFP) (HIV-1 (NL4-3)) (UniProt P12493); assay: cell-based or functional assay

rhesus macaque APOBEC3G (rhesus macaque), sequence (Q7YR24 whole entry): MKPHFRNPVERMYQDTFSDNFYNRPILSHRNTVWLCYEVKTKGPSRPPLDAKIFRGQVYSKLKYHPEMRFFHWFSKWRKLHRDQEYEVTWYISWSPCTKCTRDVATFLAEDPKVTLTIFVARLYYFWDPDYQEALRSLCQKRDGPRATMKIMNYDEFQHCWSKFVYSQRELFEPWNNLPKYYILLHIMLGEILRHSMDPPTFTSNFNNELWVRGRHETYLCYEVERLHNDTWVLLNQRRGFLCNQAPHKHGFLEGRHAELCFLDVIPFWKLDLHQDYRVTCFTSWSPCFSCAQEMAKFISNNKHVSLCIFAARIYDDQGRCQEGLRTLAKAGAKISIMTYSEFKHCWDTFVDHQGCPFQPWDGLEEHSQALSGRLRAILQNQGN

Compound: Cc1cn([C@H]2C[C@H](N=[N+]=[N-])[C@@H](CO)O2)c(=O)[nH]c1=O [AZT]
- inhibition of infection (luciferase, percentage of uninhibited level), result in words (HIV-1NL4-3 [1]): equally sensitive
- inhibition of infection (luciferase, percentage of uninhibited level), result in words (SIVMAC239 [2]): equally sensitive
- inhibition of infection (luciferase, percentage of uninhibited level), result in words (stHIV/KB9 [3]): equally sensitive

Compound: CC(C)CN(C[C@@H](O)[C@H](Cc1ccccc1)NC(=O)O[C@H]1CCOC1)S(=O)(=O)c1ccc(N)cc1 [amprenavir]
- inhibition of infectious virus generation, result in words (HIV-1NL4-3 [4]): effective inhibitors
- inhibition of infectious virus generation, result in words (SIVMAC239 [5]): ineffective or poorly inhibitory
- inhibition of infectious virus generation, result in words (stHIV/KB9 [6]): potently inhibited

Compound: Cc1ccnc2c1NC(=O)c1cccnc1N2C1CC1 [nevirapine]
- inhibition of infection (luciferase, percentage of uninhibited level), result in words (HIV-1NL4-3 [1]): effective inhibitors
- inhibition of infection (luciferase, percentage of uninhibited level), result in words (SIVMAC239 [2]): ineffective or poorly inhibitory
- inhibition of infection (luciferase, percentage of uninhibited level), result in words (stHIV/KB9 [3]): potently inhibited

Compound: HIV-1 Vif protein of the HIV-1NL4-3-based viruses (HIV/KB9/GFP, B3HIV(SCA)/KB9/GFP) (from UniProt P12504 1-192)
- single-cycle infectivity on CEMx174 cells of virus made in 293T cells with or without rhAPOBEC3G [7]: 30 fold

Compound: SIVMAC Vif protein (SIVMAC239) as expressed by HIV(SVif)/KB9/GFP and B3HIV(SCA,SVif)/KB9/GFP
- fold decrease in single-cycle infectivity on CEMx174 cells of virus made in 293T cells with or without rhAPOBEC3G [7]: < 2 fold

Compound: rhesus macaque TRIM5α (from UniProt Q0PF16 1-497)
- single-cycle infectivity (GFP-positive cells) in CEMx174 cells expressing rhTRIM5α against unmodified CEMx174 cells [8]: 30 fold
- single-cycle infectivity (GFP-positive cells) in rhesus macaque 221 cells against unmodified CEMx174 cells [8]: 70 fold
